The text below walks through data of a melting point compilation (Tetko et al.; mined from patent text by program, amines drawn as free bases though some values may be those of a salt).

For the compound `CCN1CCc2c(c(Br)cc([N+](=O)[O-])c2NC(C)=O)C1`, the melting point came out at 168 °C.

As usually defined, the melting point is the temperature of the solid-liquid transition.
